Results on two compounds are retold here after patent US11382889B2, “NRF2 activators for the prevention and/or treatment of axonal degeneration” (priority 2018, dated 2022).

This assay has as its system X-ALD fibroblasts. The experiment in a line: NRF2 response (HMOX1, NQO1, GCLC expression) in X-ALD patient fibroblasts incubated with excess VLCFA. The class given is cell-based, human. To be noted: normalized to RPLP0, fold change to vehicle. The method, then: This means that the NRF-2 target genes HMOX1, NQO1 and GCLC increase their expression when incubated with excess VLCFA. See FIG. 4 (n=8 per genotype and condition). Gene expression normalized relative to RPLP0. Quantification depicted as fold change to vehicle-treated (Veh) fibroblasts.

As for `Cc1c[nH]c(-c2cnc(NCCNc3ccc(C#N)cn3)nc2-c2ccc(Cl)cc2Cl)n1` [CT99021], the “NRF2 response: expression of NRF-2 target genes HMOX1, NQO1 and GCLC” value is “restore a normal NRF2 response”. As for `Cn1cc(C2=C(c3ccc(Cl)cc3Cl)C(=O)NC2=O)c2ccccc21` [SB216763], the “NRF2 response: expression of NRF-2 target genes HMOX1, NQO1 and GCLC” value is “restore a normal NRF2 response”.
